From US20220296595A1, “CDK INHIBITORS” (QILU REGOR THERAPEUTICS INC., priority 2019, published 2022)
Read-outs that look alike come from different tables or passages of the source.

Assays:
[1] = test system: phosphorylation of Retinoblastoma Protein (pRb Ser807/811 or Ser780) in T47D cells; assay: Inhibition of phosphorylation of retinoblastoma protein (pRb) in T47D cell (ELISA); type: cell-based, human
Method: T47D breast cancer cells from American Type Culture Collection (ATCC, HTB-133) were plated at 40,000 cells/well in 96-well plates, and were incubated in RPMI 1640 medium (Gibco, 31800105) with 10% Fetal Bovine Serum (FBS, Biowest, FB-1058). Cells were then allowed to adhere overnight at 37° C., 5% CO2. The following day, compounds were titrated in a 3-fold dilution scheme, and the highest compound concentration tested was […]. After 24 hours incubation with compounds, cells were lysed in ice-cold lysis buffer containing phosphatase inhibitor cocktail and 1 mM PMSF. Cell lysates (50 μL/well) were then transferred to ELISA plates (pRb Ser807/811 ELISA kit, Cell Signaling, 13152 or pRb Ser780 ELISA kit, Cell Signaling, 13016)). Plates were incubated overnight at 4° C., with constant slow speed shaking. After incubation, plates were washed following manufacturer's recommendations, and then 100 μL reconstituted detection antibody was added to each well and incubated for 1 hour at 37° C. After incubation, plates were washed, and then 100 μL reconstituted HRP-linked secondary antibody was added to each well and incubated for 30 mins at 37° C. After incubation, plates were washed. Then, 100 μL TMB substrate was added to each well and incubated for 10 min at 37° C. or 30 min at 25° C. Finally, 100 μL of STOP solution was added to each well and mixed gently for a few seconds. Plates were read on the Envision plate reader (PerkinElmer, 2104-0010) using the 96-well […] mode. IC50 values were calculated using 4 parameter sigmoidal dose-response model of Xlfit5/GraphPad Prism 5 software.

CDK4/CyclinD1 = target: T1, CDK4/CyclinD1 (Homo sapiens, UniProt P11802); assay: Assay for inhibition of CDK4/CyclinD1 (Caliper microfluidic kinase assay); type: biochemical
T1 construct: purchased Thermofisher PR8064A
T1 sequence (P11802 whole entry): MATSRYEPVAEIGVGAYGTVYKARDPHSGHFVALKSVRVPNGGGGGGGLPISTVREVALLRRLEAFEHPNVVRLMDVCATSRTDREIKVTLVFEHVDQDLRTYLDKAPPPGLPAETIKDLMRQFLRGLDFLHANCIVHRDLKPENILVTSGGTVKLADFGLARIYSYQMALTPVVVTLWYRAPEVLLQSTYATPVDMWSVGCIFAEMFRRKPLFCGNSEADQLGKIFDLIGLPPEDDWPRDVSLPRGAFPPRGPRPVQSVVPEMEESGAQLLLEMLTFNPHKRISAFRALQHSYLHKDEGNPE
T1 sequence (P24385 whole entry partner): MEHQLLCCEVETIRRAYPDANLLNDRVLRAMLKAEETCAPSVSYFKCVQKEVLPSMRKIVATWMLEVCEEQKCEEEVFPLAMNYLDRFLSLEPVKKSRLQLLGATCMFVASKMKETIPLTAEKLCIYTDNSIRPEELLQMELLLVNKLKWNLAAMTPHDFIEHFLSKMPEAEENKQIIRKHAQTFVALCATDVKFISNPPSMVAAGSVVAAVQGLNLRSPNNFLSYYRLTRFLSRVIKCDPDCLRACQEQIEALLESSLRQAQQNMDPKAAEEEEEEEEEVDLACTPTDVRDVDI
Summary of the method: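 Caliper microfluidic mobility-shift assay tracking phosphorylation of 1 μM FL-34 peptide by 1 nM CDK4/CyclinD1 with 200 μM ATP in HEPES pH 7.5 buffer with 10 mM MgCl2. Reaction ran 3 h at room temperature, was stopped with EDTA, and IC50 came from a 4-parameter sigmoidal fit.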

CDK2/CyclinE1 = target: T2, CDK2/CyclinE1 (Homo sapiens, UniProt P24941); assay: Assay for inhibition of CDK2/CyclinE1 (Caliper microfluidic kinase assay); type: biochemical; conditions: read-out: CDK2 IC50
T2 construct: purchased SignalChem C29-18G
Summary of the method: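 Caliper microfluidic mobility-shift assay: 5 nM CDK2/CyclinE1, 100 μM ATP, 5 μM FL-18 peptide (5-FAM-QSPKKG-NH2) in pH 7.5 HEPES buffer with MgCl2, DTT, BSA, Triton X-100. Incubated 3 hours at room temperature, EDTA-stopped; IC50 from 4-parameter sigmoidal fit.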

T47D breast cancer cells = assay: Anti-proliferation assay in T47D cell (Cyquant, day 6); type: cell-based, human; conditions: Homo sapiens, T47D, anti-proliferation, T47D cells; read-out: T47D IC50
Summary of the method: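 Cells were grown in RPMI 1640 with 10% FBS at 37 °C and dosed the day after plating at ten concentrations, 10 μM to 0.51 nM in 3-fold steps. CyQuant fluorescence (ex 485/em 535 nm) was read on day 6. IC50 was fitted from baseline-subtracted viability curves, with the baseline read after overnight culture.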

CDK6/CyclinD3 = target: T3, CDK6/CyclinD3 (Homo sapiens, UniProt Q00534); assay: Assay for inhibition of CDK6/CyclinD3 (Caliper microfluidic kinase assay); type: biochemical
T3 construct: purchased Carna 04-107
T3 sequence (Q00534 whole entry): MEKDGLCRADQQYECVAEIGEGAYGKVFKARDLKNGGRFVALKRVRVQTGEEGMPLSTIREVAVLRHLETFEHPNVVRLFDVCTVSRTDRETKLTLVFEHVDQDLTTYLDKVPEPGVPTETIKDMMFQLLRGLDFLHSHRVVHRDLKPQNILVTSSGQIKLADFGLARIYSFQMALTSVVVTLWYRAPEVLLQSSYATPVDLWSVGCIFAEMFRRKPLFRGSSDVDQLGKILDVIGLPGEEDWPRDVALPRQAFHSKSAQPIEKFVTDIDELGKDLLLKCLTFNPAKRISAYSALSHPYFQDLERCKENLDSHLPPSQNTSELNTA
T3 sequence (P30281 whole entry partner): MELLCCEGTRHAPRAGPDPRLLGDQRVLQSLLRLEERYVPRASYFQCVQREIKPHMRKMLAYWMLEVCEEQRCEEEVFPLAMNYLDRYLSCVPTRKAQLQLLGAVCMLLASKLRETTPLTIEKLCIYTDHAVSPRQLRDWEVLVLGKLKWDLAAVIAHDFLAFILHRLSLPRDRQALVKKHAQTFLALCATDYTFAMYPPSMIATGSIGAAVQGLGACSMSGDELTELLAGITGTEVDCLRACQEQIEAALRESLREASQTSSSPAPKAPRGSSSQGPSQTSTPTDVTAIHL
Method: The CDK6 enzyme assay for IC50 determination was performed as follows. Microfluidic kinase detection technology (Caliper) was used to monitor the phosphorylation of peptide substrate by CDK6/CyclinD3. The total reaction volume is 15 μL containing buffer A (100 mM HEPES (pH 7.5), 0.1% BSA, 0.01% Triton X-100, 1 mM DTT, 10 mM MgCl2, 10 μM Sodium Orthovanadate, 10 μM Beta-Glycerophosphate), 300 μM ATP, 2 nM CDK6/CyclinD3 (Carna, 04-107), 1 μM FL-34 (5-FAM-[…]), and the test compound at appropriate dilutions in DMSO. All components were added to the 384-well plate (Corning, 4514), and incubated at Room Temperature for 3 hours. The reaction was terminated by addition of 15 μL Stop Buffer (180 mM HEPES (pH 7.5), 20 mM EDTA, Coating-3 reagent (PerkinElmer, 760050)). The plate was then loaded on Caliper EZ Reader (EZ Reader II, PerkinElmer, HD-4HYSG2772), and the reaction mixtures including substrate and product were sipped into the microfluidic chip for separation and detection. The IC50 values of the test compound were determined by fitting the inhibition curves by 4 parameter sigmoidal dose-response model using the Xlfit5/GraphPad Prism 5 software.

[2] = Homo sapiens, T47D, read-out: Phospho T47D Ser807 IC50, pRb Ser807 phosphorylation, T47D cells

Molecule	IC50 [1, 2]	IC50 (CDK4/CyclinD1; CDK4/CyclinD1)	IC50 (CDK2/CyclinE1; CDK2/CyclinE1)	IC50 (T47D breast cancer cells)	IC50 (CDK6/CyclinD3; CDK6/CyclinD3)	IC50 (CDK4/CyclinD1; CDK4/CyclinD1, 200 μM ATP)	IC50 (CDK6/CyclinD3; CDK6/CyclinD3, 300 μM ATP)	IC50 (CDK2/CyclinE1; CDK2/CyclinE1, 100 μM ATP)	IC50 ([1]; pRb Ser807 phosphorylation, T47D cells, read-out: Phospho T47D Ser807 IC50)
COc1nc(-c2ccnc(Nc3ccc(N4CCOC(C)C4)cn3)n2)cc2c1ncn2C(C)C (centres unmarked) [compound 96]	100 to 500 nM	10 to 100 nM	> 1000 nM	100 to 500 nM					
COc1nc(-c2ccnc(Nc3ccc(N4CCC(N5CCOCC5)CC4=O)cn3)n2)cc2c1ncn2C(C)C (centres unmarked) [compound 100]	100 to 500 nM	< 10 nM	100 to 1000 nM		10 to 100 nM				
COc1nc(-c2ccnc(Nc3ccc(N4CC5CC4CO5)cn3)n2)cc2c1ncn2C(C)C (centres unmarked) [compound 104]	100 to 500 nM	10 to 100 nM	> 1000 nM	100 to 500 nM					
COc1nc(-c2ccnc(Nc3ccc(N4CCNCC4=O)cc3F)n2)cc2c1ncn2C(C)C [compound 114]	100 to 500 nM					< 10 nM	10 to 100 nM	10 to 100 nM	
COc1nc(-c2ccnc(Nc3ccc(N4CCNCC4=O)nc3)n2)cc2c1ncn2C(C)C [compound 119]	100 to 500 nM					< 10 nM	10 to 100 nM	10 to 100 nM	
COc1nc(-c2nc(Nc3ccc(N4CCN(CCF)CC4)cn3)ncc2F)cc2c1ncn2C(C)C [compound 125]	100 to 500 nM					10 to 100 nM		> 1000 nM	
COc1nc(-c2ccnc(Nc3ccc(N4CCN(C5COC5)CC4)cn3)n2)cc2c1ncn2C(C)C [compound 130]	100 to 500 nM			100 to 500 nM		< 10 nM		> 1000 nM	
COc1nc(-c2nc(Nc3ccc(N4CCN(C5COC5)CC4)cn3)ncc2F)cc2c1ncn2C(C)C [compound 133]	100 to 500 nM					10 to 100 nM		> 1000 nM	
CCN1CCN(c2ccc(Nc3nccc(-c4cc5c(ncn5C(C)C)c(OC)n4)n3)nc2)C(=O)C1 [compound 134]	< 100 nM					< 10 nM	10 to 100 nM	100 to 1000 nM	
CCNC1CCN(c2ccc(Nc3nccc(-c4ccn5ncc(C(C)C)c5c4)n3)nc2)C(=O)C1 (centres unmarked) [compound 209]	< 100 nM			< 100 nM		< 10 nM		< 10 nM	
CC(C)c1cnn2ccc(-c3ccnc(Nc4ccc(N5CCNCC5=O)nc4)n3)cc12 [compound 227]	< 100 nM			< 100 nM		< 10 nM		< 10 nM	
CC(C)n1cnc2c1CN(c1ccnc(Nc3ccc(N4CCN(S(C)(=O)=O)CC4=O)cn3)n1)CC2 [compound 240]	> 1000 nM			> 1000 nM		10 to 100 nM		10 to 100 nM	
CCN1CCN(c2ccc(Nc3nccc(N4CCc5ncn(C(C)C)c5C4)n3)nc2)C(=O)C1 [compound 241]	< 100 nM			100 to 500 nM		10 to 100 nM		100 to 1000 nM	
CC(C)n1cnc2c1CN(c1ccnc(Nc3ccc(N4CCC(N5CC(F)C5)CC4=O)cn3)n1)CC2 (centres unmarked) [compound 243]	100 to 500 nM			500 to 1000 nM		10 to 100 nM		10 to 100 nM	
CC1(C)COc2c(F)cc(-c3ccnc(Nc4ccc(N5CCCNC5=O)cn4)n3)cc21 [compound 262]	< 100 nM			< 100 nM		< 10 nM		100 to 1000 nM	
CC(C)n1cnc2c(F)nc(-c3ccnc(Nc4ccc(N5CCN(C)CC5)cn4)n3)cc21 [compound 290]	< 100 nM					< 10 nM		100 to 1000 nM	
N-[5-[4-(dimethylamino)-1-piperidyl]-2-pyridyl]-4-(3-isopropylpyrazolo[1,5-a]pyridin-5-yl)pyrimidin-2-amine [Synthetic Example 161]									< 100 nM
